The structures appear in SMILES notation.

This data set can be described thus: gradient 5% acetonitrile 3 min, to 50% in 2 min, to 85% in 15 min, held 3 min, 100 µL/min. The following applies: column: Zorbax Extend-C18 2.1 x 50 mm; eluents: water / acetonitrile, 0.1% formic acid. In a few lines: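 Values are retention times taken from adduct peaks that software picked and an analyst inspected. The pure standards were run as mixtures of ~100 molecules on HPLC linked to a quadrupole time-of-flight mass spectrometer, in positive and negative ionization mode. A Zorbax Extend-C18 column (2.1 × 50 mm, 1.8 μm) was used at 100 μL/min with water and acetonitrile, each including 0.1% formic acid.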
Compound `N#CC1=CN(c2ccc(C(F)(F)F)cc2)c2ccccc2S1(=O)=O` displayed an RP-LC retention time of 963 s.
On to `CCN1CCN(Cc2ccc(C(=O)NCc3ccccc3C(F)(F)F)cc2)C(=O)C1=O`, for which the RP-LC retention time turned out to be 721 s.
Consider `COc1cccc(C(=O)N2CCC3(CC2)c2nccn2-c2ccccc2CN3C)c1`, for which the RP-LC retention time was found to be 612 s.
The result for `COCCNC(=O)CCC1CCN(c2cc(NC3CC3)ncn2)CC1` reads 572 s.
The value for `Cc1cccc(Cn2c(C)c(CNCCc3ccco3)c(C(=O)O)c2C)c1` was 720 s; that for `CCOc1ccccc1C1NC(=O)N(CC(=O)Nc2ccc(C(F)(F)F)cc2)C2=C1C(=O)OC2` (stereo not drawn) was 888 s.
As for `CCCNc1cc(N2CCC(CCC(=O)Nc3ccc(C)cc3C)CC2)ncn1`, the RP-LC retention time came out at 733 s.
The value for `Cc1nn2c(CNC(=O)c3ccc(Br)cc3)c(C)nc2s1` was 656 s; that for `CCOC(=O)C(CC)n1nc2nc(Nc3ccc(C)c(F)c3)cc(C)n2c1=O` (stereo not drawn) was 1200 s; that for `CCn1cc(-c2nc(C(=O)Nc3cccc(OC)c3)cs2)c2cccnc21` was 1060 s.
`Cc1ccc(CN2CC[C@]3(CO)CN(Cc4ccccc4)C[C@@H]3C2)cc1C` had an RP-LC retention time of 570 s.
For `COc1ccc(CNC2=NCCNC23CCN(S(=O)(=O)c2ccc(C(C)C)cc2)CC3)cc1`, the RP-LC retention time was determined as 814 s.
For `Cc1ccc(C)c(N2CCN(C(=O)Cn3nc(C(=O)N4CCCCC4)c4ccccc43)CC2)c1`, the RP-LC retention time is 1100 s.
Consider `Cn1cc(CCN2CCC(C(=O)NCc3ccccc3)CC2)c2cccnc21`, for which the RP-LC retention time is 588 s.
Turning to `O=C(C1CCN(c2ncnc3c2oc2ccccc23)CC1)N1CCN(c2cccc(Cl)c2)CC1`, the RP-LC retention time worked out at 930 s.
The result for `c1ccc(-c2nc3cc(-c4noc(-c5ccc6nc[nH]c6c5)n4)ccc3o2)cc1` reads 888 s.
In turn, `Cn1cc(S(=O)(=O)N2CCC(C(=O)N3CCCCCC3)CC2)cc1C(=O)N1CCCC1` displayed an RP-LC retention time of 732 s.
`CCn1cnc2ccc(-c3noc(Cc4ccccc4Cl)n3)cc21` returned an RP-LC retention time of 774 s.
In turn, `CCn1nccc1-c1cccc(-c2noc(-c3ccc(C)c(C)c3)n2)c1` gave an RP-LC retention time of 1420 s.
Regarding `CC1COC2(CCN(c3nc(=O)c4cc(C(F)(F)F)cc([N+](=O)[O-])c4s3)CC2)O1` (stereo not drawn), the RP-LC retention time was 1000 s.
As for `CCc1onc(C)c1C1CCCN1C(=O)c1c(Br)cnn1C` (stereo not drawn), the RP-LC retention time amounted to 728 s.
`CNC(=O)C1CCCN(c2nc3ncn(CC(=O)NCc4ccc5c(c4)OCO5)c(=O)c3s2)C1` (stereo not drawn): the RP-LC retention time was 618 s.
For the compound `CCn1ccc2sc(C)c(C(=O)NCc3ccc(F)cc3Cl)c2c1=O`, the RP-LC retention time came to 916 s.
Consider `O=C(Nc1ccc(F)cc1F)N1CCC(N(C(=O)C2CC2)C2CCOCC2)CC1`, for which the RP-LC retention time amounted to 719 s.
In turn, `Cc1cc(NC(=O)CSc2cn(Cc3cccc(F)c3)c3ccccc23)no1` showed an RP-LC retention time of 951 s.
As for `Cc1ccc(N2N=C(C(=O)N3CCN(C(C)C)CC3)S(=O)(=O)c3cccnc32)cc1`, the RP-LC retention time stood at 649 s.
The result for `CCc1nnc(-c2ccc3ccn(CC(=O)Nc4ccc5c(c4)OCCO5)c3c2)o1` reads 811 s; that for `COc1cccc(NS(=O)(=O)c2ccc(-c3nnc(C4CCC4)o3)o2)c1`, 881 s.
In the case of `CCc1ccc(NC(=O)C(=O)NCC(c2ccc3c(c2)OCO3)N2CCOCC2)cc1` (stereo not drawn), the RP-LC retention time was 613 s.
The result for `COc1ccc(CC(=O)NCc2c(C)nc3sc(C)nn23)c(Cl)c1` reads 622 s.
Turning to `CCn1cc(-c2nc(C)c(C(=O)NCc3cccc(F)c3)s2)c2cccnc21`, the RP-LC retention time came out at 947 s.
In turn, `CCOc1ccc(S(=O)(=O)N2CCCC(C(=O)NCCCO)C2)cc1C` (stereo not drawn) showed an RP-LC retention time of 736 s.
The compound `CCn1ncc(NC(=O)COc2ccc(C(C)C)cc2)c(N2CCOCC2)c1=O` returned an RP-LC retention time of 1050 s.
The value for `COC(=O)c1ccc(C(=O)NCC(O)(c2ccccc2)C(F)(F)F)cc1` (stereo not drawn) was 842 s.
`Cc1ccc(CNC2=NCCNC23CCN(S(=O)(=O)c2ccc(C)cc2)CC3)cc1` displayed an RP-LC retention time of 736 s.
`CCn1cc(C)c(C(=O)O)c1CC(=O)Nc1cc(Cl)c(OC)cc1OC` returned an RP-LC retention time of 901 s.
The result for `Cc1nn(-c2ccc(-c3ccccc3)nn2)c(C)c1S(=O)(=O)Nc1ccc2c(c1)OCCO2` reads 978 s; that for `CCOC(=O)CC1(NC(=O)N2CCCn3nc(-c4cccnc4)cc3C2)CCCCC1`, 643 s; that for `O=C(CCC1CCN(c2cc(NC3CC3)ncn2)CC1)NCc1ccccc1Cl`, 676 s.
In turn, `O=C(c1ccc(Cn2cncn2)cc1)N1CCc2ccccc21` gave an RP-LC retention time of 706 s.
`Cc1nn(-c2ccc(C(=O)N3CCN(C(=O)c4ccco4)CC3)cc2)c2c1C(=O)CCC2` gave an RP-LC retention time of 664 s.
`Cc1ccc(CN2CCC(CNC(=O)c3ccc4c(c3)NC(=O)C3CCCCN43)CC2)cc1` (stereo not drawn) came in with an RP-LC retention time of 638 s.
The result for `CCCn1c(=O)sc2cc(S(=O)(=O)N3CCC(C(=O)NCc4cccnc4)CC3)ccc21` reads 643 s; that for `Cc1ccc(CNC(=O)C2CCN(c3nccnc3Sc3ccccc3)CC2)o1`, 958 s.
On to `CCOC(=O)c1ccc(NC(=O)CN2CCc3[nH]c4c(C)c(C)ccc4c(=O)c3C2)cc1`, for which the RP-LC retention time was 639 s.
`CN1C(=O)C2CCCCN2c2ccc(C(=O)NCCCN3CCCCC3)cc21` (stereo not drawn): the RP-LC retention time amounted to 600 s.
In turn, `CCOc1cc(C(=O)Nc2nc(-c3ccc4c(c3)NC(=O)CO4)c(C)s2)cc(OCC)c1OCC` yielded an RP-LC retention time of 1140 s.
`COC(=O)c1cc(S(=O)(=O)N2CCCC2C(=O)NCc2ccc(C)cc2)cn1C` (stereo not drawn): the RP-LC retention time was found to be 939 s.
`Cc1cc(F)ccc1NS(=O)(=O)c1cc(-c2[nH]ncc2C(=O)N2CCCC2)oc1C`: the RP-LC retention time came out at 728 s.
`CCn1c(=O)c2cc(C(=O)N3CCC(Cc4ccccc4)CC3)nn2c2ccccc21` yielded an RP-LC retention time of 1150 s.
For the compound `CCn1cc(-c2nc(C)c(C(=O)NCc3ccc(F)cc3)s2)c2cccnc21`, the RP-LC retention time came to 902 s.
For the compound `CCn1ccc2c(cc(C(=O)Nc3cccc(C)c3C)n2C)c1=O`, the RP-LC retention time came out at 736 s.
With `O=C(Cc1cccs1)N1CCCCC1c1nc(-c2cnccn2)no1` (stereo not drawn), the RP-LC retention time came to 726 s.
The value for `Cc1cccc(S(=O)(=O)N2CCc3nc(-c4ccccc4)ncc3C2)c1` was 1070 s.
The compound `CCn1cc(S(=O)(=O)Nc2cc(Cl)ccc2OC)c2cccnc21` showed an RP-LC retention time of 908 s.
On to `O=C(c1ccc2cc[nH]c2c1)N1CCC(c2nc(-c3ccccc3)no2)C1` (stereo not drawn), for which the RP-LC retention time was 866 s.
Take `COc1ccc(OC)c(CNC(=O)Cc2csc3nc(-c4ccccc4)cn23)c1`: the RP-LC retention time was 779 s.
`Cc1cccc(C2CN(C)CCc3c2cc(O)c(O)c3Cl)c1` (stereo not drawn) gave an RP-LC retention time of 648 s.
In turn, `CN(CCc1noc(-c2ccccc2)n1)C(=O)Nc1ccccc1Br` yielded an RP-LC retention time of 956 s.
The result for `Cc1cc2n(n1)CCC(=O)N2CCCC(=O)NCCCN1CCCCCC1` reads 570 s; that for `C=CCN1CCN(C(=O)C2CCN(c3cc(Nc4ccc(C)cc4)ncn3)CC2)CC1`, 572 s.
`CCc1ccc(-c2cc(C(F)(F)F)on2)cc1S(=O)(=O)N1CCN(c2ncccn2)CC1` had an RP-LC retention time of 1230 s.
The value for `COc1ccc(NC(=O)Nc2c(-c3ccc(F)cc3)nc3ccccn23)cc1F` was 668 s; that for `O=C(Nc1ccccc1Cl)c1cn(CC2CCCO2)cc2c(=O)n(-c3ccccc3)nc1-2` (stereo not drawn) was 1050 s.
`Cc1ccc(C)c(N2CCN(Cc3nc(-c4ccc(N5CCCC(C)C5)nc4)no3)CC2)c1` (stereo not drawn): the RP-LC retention time amounted to 1280 s.
`Nc1nc(Cl)nc2c1ncn2[C@H]1C[C@H](O)[C@@H](CO)O1` displayed an RP-LC retention time of 593 s.
The compound `Cc1ncc2c(n1)C[C@@H]1CC[C@H]2N1S(=O)(=O)c1ccc(F)c(C)c1` had an RP-LC retention time of 732 s.
The value for `O=C(NCc1ccc(F)c(Cl)c1)c1csc(C(=O)NC2CC2)n1` was 828 s; that for `Cc1nc(C(=O)NCc2ccccc2C(F)(F)F)c(C)o1` was 917 s; that for `CCCCOc1ccc(C(=O)N2CCN(c3cc(C)nc(N4CCCC4)n3)CC2)cc1` was 788 s.
In the case of `O=c1c2nc(-c3ccc4c(c3)OCO4)cn2ccn1-c1cccc(Cl)c1`, the RP-LC retention time was 834 s.
`O=S(=O)(NCCN1CCOCC1)c1cc(-c2noc(C3CCCC3)n2)cs1` returned an RP-LC retention time of 678 s.
Turning to `CCc1nn(C)c(=O)c2cc(S(=O)(=O)NCc3cc(F)cc(F)c3)cn12`, the RP-LC retention time turned out to be 882 s.
Take `Cc1ccc(CNC(=O)c2ccc3c(c2)N(C(=O)c2ccc(F)cc2)CC3)o1`: the RP-LC retention time is 883 s.
In turn, `O=C(Nc1ccccc1F)N1CCN(c2cc(-c3ccncc3)[nH]n2)CC1` showed an RP-LC retention time of 553 s.
The result for `CCN1CCCC(C(=O)NCc2cccc(OC)c2OC)(c2ccccc2)CC1` (stereo not drawn) reads 660 s; that for `Cc1ccc(C(=O)N2CCCC(COc3ccc(C(=O)NC(C)C)cc3)C2)cc1F` (stereo not drawn), 896 s; that for `C#CC(C)(CC)OCC(O)CN1C(C)(C)CC(O)CC1(C)C` (stereo not drawn), 568 s.

For the origin of these results see the METLIN SMRT retention time set (Domingo-Almenara et al. 2019).
